Data as given in PubChem BioAssay AID1845209 (Molecular Pharmacology Branch, DTP, NCI, 2023).

Test system: NCI-H211 tumor spheroids, viability percent test/control
Experiment: Anticancer human tumor NCI-H211 cell line growth inhibition;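 further: spheroids exposed to agents for seven days before readout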
Conditions: spheroids with HUVEC and MSC; for IC50: curve of first compound; for viability, T/C: stronger effect = lower value; active means viability on the fitted dose curve at most 10% of control; inactive means the rest
Excerpt: Multicellular complex tumor spheroid response to DNA repair inhibitors in combination with DNA-damaging drugs
This study explores the anticancer activities of DNA-damaging drugs and inhibitors of DNA damage repair, both as single agents and in combinations. Complex tumor spheroids comprised of malignant cells, endothelial cells and mesenchymal stem cells served as an in vitro model for human solid tumors. This model system incorporates physiologically relevant features and patient-derived or established malignant cell lines with clinically relevant genetic alterations from many tumor types. Twenty-six patient-derived or established malignant cell lines were evaluated representing sarcoma, melanoma, small cell lung cancer (SCLC), non-small cell lung cancer (NSCLC), as well as bladder, ovarian and pancreatic cancers. The concentration ranges selected for each drug and investigational agent were based upon clinically achievable concentrations if the clinical Cmax of the agent was known.
Compounds. The drugs and compounds olaparib (NSC753686), talazoparib (NSC767125), berzosertib (NSC777718), elimusertib (NSC800525), nedisertib (NSC802822), VX-984 (NSC792969), AZD-1390 (NSC803789), temozolomide (NSC362856), topotecan (NSC609699), trabectedin (NSC813783), staurosporine (NSC755774), and gemcitabine (NSC613327) were obtained from the National Cancer Institute (NCI) Developmental Therapeutics Program Chemical Repository. The FDA-approved anticancer drug set is available from the Developmental Therapeutics Program at https://dtp.cancer.gov/organization/dscb/obtaining/available_plates.htm. […] The stock solutions were prepared in dimethyl sulfoxide (DMSO, Sigma-Aldrich, St. Louis, MO, cat. D2650) at 400-fold the tested concentration and stored at -70 degrees C. Prior to their use, the stock solutions were diluted in fresh medium and the final DMSO concentration in the assay was 0.25% (v/v). All drugs and investigational agents were tested over a range starting from a high concentration at or near the clinical Cmax and decreasing in half-log increments. If the clinical Cmax for an agent had not been determined, the highest concentration tested was 10 microM.
Cell Lines. The patient-derived cancer cell (PDC) lines: 156681-154-R-J1-PDC, 283228-195-R-J1-PDC, 287954-098-R-J1-PDC, 292921-168-R-J2-PDC, 349418-098-R-PDC, 425362-245-T-J1-PDC, 556581-035-R-J1-PDC, and BL0293-F563-PDC were received from the NCI Patient-Derived Models Repository (PDMR, https://pdmr.cancer.gov). The established cell lines HS-SY-2 (RRID:CVCL_8719), MPNST, and SYO-1 (RRID:CVCL_7146) were obtained from the Sloan Kettering Institute. The alveolar soft parts sarcoma cell line ASPS-1 (RRID:CVCL_S738) was established at the NCI and grown from internal seed stocks. The following established cell lines were purchased from the American Type Culture Collection (ATCC, Manassas, VA): G-401 (ATCC, cat. CRL-1441, RRID:CVCL_0270), SW982 (ATCC, cat. HTB-93, RRID:CVCL_1734), VA-ES-BJ (ATCC, cat. CRL-2138, RRID:CVCL_1785), NCI-H719 (ATCC, cat. CRL-5837, RRID:CVCL_1582), NCI-H196 (ATCC, cat. CRL-5823, RRID:CVCL_1509), NCI-H841 (ATCC, cat. CRL-5845, RRID:CVCL_1595), NCI-H1618 (ATCC, cat. CRL-5879, RRID:CVCL_1480), NCI-H1876 (ATCC, cat. CRL-5902, RRID:CVCL_1503), DMS 114 (ATCC, cat. CRL-2066; RRID:CVCL_1174), NCI-H211 (ATCC, cat. CRL-5824; RRID:CVCL_1529), and SW 1271 (ATCC, cat. CRL-2177, RRID:CVCL_1716). The small cell lung cancer cell line COR-L88 was purchased from Sigma-Aldrich (cat. 92031917-1VL, RRID:CVCL_1141). The non-small cell lung cancer cell lines NCI-H226 (RRID:CVCL_1544) and NCI-H322M (RRID:CVCL_1557) were established at the NCI and grown from internal seed stocks. Pooled donor human umbilical vein endothelial cells (HUVEC, Lonza, cat. CC-2519) and human mesenchymal stem cells (hMSC, Lonza, cat. PT-2501) were purchased from Lonza (Walkersville, MD).
Cell Culture. All cells were maintained in an incubator at 37 degrees C and 5% CO2 with 95% humidity. […]

COc1cc(C)[nH]c(=O)c1CN1CCc2c(Cl)cc(C(OC)C3COC3)c(Cl)c2C1=O (stereo not given) + COc1cc2c(cc1O)CCNC21CSC2c3c(OC(C)=O)c(C)c4c(c3C(COC1=O)N1C(O)C3Cc5cc(C)c(OC)c(O)c5C(C21)N3C)OCO4
inactive: viability, T/C (second compound 30 pM, first compound 0.0316 µM) 94.3% | viability, T/C (second compound 30 pM, first compound 0.1 µM) 98.4% | viability, T/C (second compound 30 pM, first compound 0.316 µM) 95% | viability, T/C (second compound 30 pM, first compound 1 µM) 90.2% | viability, T/C (second compound 30 pM, first compound 3.16 µM) 81.9% | viability, T/C (second compound 30 pM, first compound 10 µM) 77.2% | viability, T/C (second compound 94.9 pM, first compound 0.0316 µM) 13.8% | viability, T/C (second compound 94.9 pM, first compound 0.1 µM) 22.7% | viability, T/C (second compound 94.9 pM, first compound 0.316 µM) 22.8% | viability, T/C (second compound 94.9 pM, first compound 1 µM) 16% | viability, T/C (second compound 94.9 pM, first compound 3.16 µM) 10.4%
< 31.6 nM: IC50 (second compound 94.9 pM) | IC50 (second compound 0.0003 µM) | IC50 (second compound 0.000949 µM) | IC50 (second compound 0.003 µM)
> 10000 nM: IC50 (second compound 30 pM)
active: viability, T/C (second compound 94.9 pM, first compound 10 µM) 5.32% | viability, T/C (second compound 0.0003 µM, first compound 0.0316 µM) 0.73% | viability, T/C (second compound 0.0003 µM, first compound 0.1 µM) 0.85% | viability, T/C (second compound 0.0003 µM, first compound 0.316 µM) 0.77% | viability, T/C (second compound 0.0003 µM, first compound 1 µM) 0.69% | viability, T/C (second compound 0.0003 µM, first compound 3.16 µM) 0.78% | viability, T/C (second compound 0.0003 µM, first compound 10 µM) 0.85% | viability, T/C (second compound 0.000949 µM, first compound 0.0316 µM) 0.63% | viability, T/C (second compound 0.000949 µM, first compound 0.1 µM) 0.69% | viability, T/C (second compound 0.000949 µM, first compound 0.316 µM) 0.66% | viability, T/C (second compound 0.000949 µM, first compound 1 µM) 1.2% | viability, T/C (second compound 0.000949 µM, first compound 3.16 µM) 0.82% | viability, T/C (second compound 0.000949 µM, first compound 10 µM) 0.76% | viability, T/C (second compound 0.003 µM, first compound 0.0316 µM) 0.12% | viability, T/C (second compound 0.003 µM, first compound 0.1 µM) 0.11% | viability, T/C (second compound 0.003 µM, first compound 0.316 µM) 0.11% | viability, T/C (second compound 0.003 µM, first compound 1 µM) 0.1% | viability, T/C (second compound 0.003 µM, first compound 3.16 µM) 0.11% | viability, T/C (second compound 0.003 µM, first compound 10 µM) 0.56%
